The text below walks through data of article PMC10449632, “Structural basis for translation inhibition by the glycosylated drosocin peptide” (Nature Chemical Biology, 2023).

No end group written: not given here. *: point of attachment. αGalNAc = CC(=O)N[C@@H]1[C@@H](O)[C@@H](O)[C@@H](CO)O[C@@H]1*

Assay [1] has as its system ribosomes at the stop codon of MLIF-UAA mRNA in the presence of RF2. The assay can be described thus: Toeprinting assay on MLIF*-mRNA with RF2. Type of assay: biochemical, Escherichia coli. The note with it: Fig 1h, RF2 (10X), 30 μM compound, plotted values. The procedure: To ascertain which step during protein synthesis is affected by drosocin, we performed toeprinting assays, where reverse transcription is used to monitor the position of ribosomes on a defined mRNA[34].
Toeprinting reactions were performed as described previously. In brief, reactions were performed with 6 μl of PURExpress ΔRF123 in vitro protein synthesis system (NEB) in the presence of 1× RF3 and either 1× or 10× of RF1 or RF2 (relative to the manufacturer’s recommendation). The reactions were carried out on an MLIF-UAA-toeprint template (5′-[…]-3′, ORF start codon and stop codon are underlined bold), containing T7 promoter, a ribosome binding site, an MLIF-coding ORF and the NV1* primer binding site. The template is a version of the ErmBL template with a truncated ORF and addition of a isoleucine coding codon at the third position in the ORF. The template was generated by polymerase chain reaction of two overlapping 77-nt- and 78-nt-long primers. The reactions contained 30 ng of the MLIF-UAA-toeprint DNA template. The reactions were supplemented with Api137, thiostrepton or one of the drosocin derivates as specified. The transcription–translation reactions were incubated for 15 minutes at 37 °C. The reverse transcription on the MLIF-short-UAA toeprint template was carried out using AMV RT and primer NV*1-Alexa 647 (5′-[…]-3′). The transcription–translation reactions were incubated with AMV RT and NV*1-Alexa 647 for 20 minutes at 37 °C. mRNA degradation was carried out by the addition of 1 µl of 5 M NaOH. The reactions were neutralized with 0.7 µl of 25% HCl, and nucleotide removal was performed with the QIAquick Nucleotide Removal Kit (Qiagen). The samples were dried under vacuum for 2 hours at 60 °C for subsequent gel electrophoresis. The 6% acrylamide gels were scanned on a Typhoon scanner (GE Healthcare).

A further assay relates to E. coli SQ171 U2609C. The assay can be described thus: Antibiotic susceptibility (growth) assay, E. coli SQ171 U2609C. The note with it: relative to no compound, mean of 3 replicas. It counts as cell-based, Escherichia coli. From the text:
(§1) In addition, we also used a strain with a U2609C–A752G double mutation, which would be predicted to restore Watson–Crick base pairing, and with three hydrogen bonds could possibly make breaking the base pair harder than with the canonical two hydrogen bonds for the A–U base pair. As a control, we also tested Dro that lacks the α-D-GalNAc modification, which we predict (assuming that Dro binds analogously to Dro1) should not interact with U2609 and, therefore, not be influenced by the conformation of the U2609–A752 base pair.
(§2) Strains E. coli Keio wild-type and E. coli Keio ΔsbmA used from the Keio knockout collection (Horizon, https://horizondiscovery.com). Wild-type E. coli SQ110 (ΔrrnGADBHC(ptRNA67))[47] and SQ171 (ΔrrnGADEHBC(pKK3535, ptRNA67))[47] strains and related mutants E. coli SQ110 A2059G and E. coli SQ171 A2503G were obtained from the previous Api137 study. E. coli strains SQ171 bearing A752G, U2609C and A752G:U2609C mutations[43] and E. coli SQ171 U2609G[48] were generated previously.
(§3) The susceptibility of E. coli strains to compounds was evaluated by monitoring the bacterial growth in presence of increasing concentrations of the compound of interest. In brief, bacteria were inoculated in a total volume of 100 μl of medium contained in a well of a 96-well microplate (round bottom, with cap, sterile; Sarstedt). The medium used was either LB, as rich medium, or ATCC medium (778 Davis and Mingioli glucose minimal medium), as minimal medium. Before inoculation, bacteria were grown up to exponential phase and then inoculated into the culture mix, containing selective antibiotic if necessary, with an initial optical density at 600 nm (OD600) of 0.05. Values measured from wells containing just the medium were used as a blank. The growth in each well was monitored by measuring the OD600 every 10 minutes for a total of 20 hours at 37 °C with shaking using a plate reader (Tecan Infinite 200 PRO). The inhibition resulting from a compound’s concentration was evaluated by normalizing the OD600 at t = 12 hours (corresponding to the end of the log phase) from the treated culture to the untreated one. For each compound, the concentrations tested were 5 μM, 10 μM and 30 μM. Each single titration assay was done in triplicate with individually prepared culture mixes. For each concentration, the standard deviation was calculated, taking into account each single replica and its specific technical error from the plate reader.

Assay [2] has as its system E. coli Keio ∆sbmA (BW25113 ΔsbmA). In words: Antibiotic susceptibility (growth) assay, E. coli Keio ΔsbmA. Type of assay: cell-based, Escherichia coli. The note with it: 30 μM peptide, average of three biological replicates.
Description: Many PrAMPs use the SbmA transporter to pass through the E. coli inner membrane[4],[10],[31]; however, whether drosocin also uses SbmA remains, to our knowledge, unknown. To address this, we monitored the effect of the presence of diverse drosocin peptides (Fig. 1a,b and Supplementary Fig. 1a) on the growth of the wild-type E. coli strain BW25113 containing SbmA or lacking SbmA (ΔsbmA) (Fig. 1c,d). We compared unmodified drosocin (Dro) with various modified forms (Fig. 1a,b). The modified forms included the naturally occurring Dro1 and Dro2 that carry either a monosaccharide (α-D-GalNAc) or disaccharide (β-D-Gal(1→3)-α-D-GalNAc) attached to Thr11, respectively (Fig. 1b). In addition, we examined the previously reported[23],[24] drosocin derivatives bearing β-D-Maltosyl (Dro3), α-D-GlcNAc (Dro4), β-D-Gal (Dro5), β-D-Glc (Dro6), β-D-Lactosyl (Dro7) and β-D-Cellobiosyl (Dro8) modifications on Thr11 (Fig. 1a,b and Supplementary Fig. 1a). Finally, we also included in our analysis the synthetic unmodified drosocin derivative with proline substitutions at positions 7, 11 and 12 (Dro-3P) (Fig. 1a), which was previously reported to have similar antimicrobial activity to the monosaccharide form of drosocin[25]. Growth was monitored in both rich (LB) and minimal medium in the presence of 30 μM of each peptide and normalized with the growth in the absence of the compounds (Methods). […] We also observed no inhibition for Dro2 nor for any of the β-linked disaccharides (Dro3, Dro6 or Dro7). […] By contrast, all drosocin peptides inhibited growth of the E. coli BW25113 strain in minimal medium, albeit to different extents (Fig. 1d).
as §2, §3

The subject of a further assay is E. coli SQ171 U2609G. In words: Antibiotic susceptibility (growth) assay, E. coli SQ171 U2609G. Type of assay: cell-based, Escherichia coli. The note with it: relative to no compound, mean of 3 replicas.
Description: as §1, §2, §3

The test system of assay [3] is E. coli SQ171 A752G/U2609C. In words: Antibiotic susceptibility (growth) assay, E. coli SQ171 A752G/U2609C. The note with it: for OD600 at t = 12 h, Normalized, Average: relative to no compound, mean of 3 replicas. It counts as cell-based, Escherichia coli.
Description: as §1, §2, §3

The subject of the next assay is E. coli SQ171 A752G. The assay can be described thus: Antibiotic susceptibility (growth) assay, E. coli SQ171 A752G. It counts as cell-based, Escherichia coli. The settings on record: relative to no compound, mean of 3 replicas.
Description: as §1, §2, §3

Turning to “Dro1: naturally occurring drosocin carrying monosaccharide α-D-GalNAc attached to Thr11 (GKPRPYSPRPT(αGalNAc)SHPRPIRV; UniProt P36193 22-40, looked up)”, the “Relative stop band intensity signal” value in assay [1] came to 0.1899. The “OD600 at t = 12 h, Normalized, Average” value was 40% in the assay with E. coli SQ171 U2609C (5 μM); 5% in the assay on E. coli SQ171 U2609C (30 μM); 50% in the assay on E. coli SQ171 U2609G (5 μM); 8% in the assay with E. coli SQ171 U2609G (30 μM); 70% in assay [3] (5 μM); 25% in assay [3] (30 μM). Further, the “OD600 at t = 12 h, Normalized, Average” value in the assay with E. coli SQ171 A752G (5 μM) turned out to be 70%; with E. coli SQ171 A752G (30 μM) it was 7%. Moreover, the “Average of normalized growth” value in assay [2] (LB rich medium) is 99%; in assay [2] (Minimal medium), 106%. The “tolerance of double mutant relative to the wild-type strain” value in assay [3] (U2609C–A752G double mutation vs wild-type SQ171, 30 μM) is recorded as 2.5 fold.
On to “Dro: unmodified drosocin, 19 amino acid proline-rich antimicrobial peptide lacking O-glycosylation (GKPRPYSPRPTSHPRPIRV; Drosocin; UniProt P36193 22-40, looked up)”, for which the “Relative stop band intensity signal” value in assay [1] turned out to be 0.1232. Besides, the “OD600 at t = 12 h, Normalized, Average” value worked out at 92% with E. coli SQ171 U2609C (5 μM); 71% in the assay on E. coli SQ171 U2609C (30 μM); 87% in the assay with E. coli SQ171 U2609G (5 μM); 59% in the assay on E. coli SQ171 U2609G (30 μM); 85% in assay [3] (5 μM); 72% in assay [3] (30 μM). Also, the “OD600 at t = 12 h, Normalized, Average” value in the assay with E. coli SQ171 A752G (5 μM) came to 84%; in the assay on E. coli SQ171 A752G (30 μM), 59%. For the same substance, the “Average of normalized growth” value in assay [2] (LB rich medium) and in assay [2] (Minimal medium) was 102% each time.
